Assay results published in US10745715B2, “Method and means for purifying retroviral vectors” (UCL BUSINESS PLC, priority 2014, dated 2020).
No end group written: not given here.

Key:
Streptavidin [1] = molecular target: T1, Streptavidin (Streptomyces avidinii, UniProt P22629); assay: Streptavidin-APC staining of HEK 293T cells transfected with tag constructs, flow cytometry; format: cell-based; settings: 48 hrs post-transfection
Protocol: A. Schematic diagram of the amino acid sequences of the six Streptavidin-binding tags on a CD8 stalk. These constructs co-express the green fluorescent protein (eGFP) via an internal ribosome entry sequence (IRES) downstream of the first open reading frames. B. The constructs were transfected into HEK 293T cells and stained with Streptavidin-APC 48 hours post-transfection and analysed by flow-cytometry. Binding of streptavidin (y-axis) is plotted against eGFP signal.
FIG. 3: Transfection of 293T cells with StreptagII, Flankedccstreptag and ccstretag epitopes in three different formats shown in FIG. 2. 293T cells were also transfected with an irrelevant protein (HA1-TCR beta) co-expressed with eGFP as a negative control. […] Tags were expressed on either a CD8 stalk, a GPI anchor (×1) with one open reading frame or with a GPI anchor (×2) with two copies of the open reading frame. 293T cells transfected with the tagging proteins were stained with Streptavidin APC. The cells were all analysed by flow-cytometry and Streptavidin APC binding (y-axis) is plotted against eGFP signal (x-axis).
An expression construct coding for a signal peptide attached to the amino terminal of theses tags was generated. In addition, the carboxy terminal of these peptide tags was attached to the CD8 stalk, CD8 transmembrane domain and a short part of the CD8 endodomain sufficient to anchor the protein to the membrane. To test their binding to streptavidin, HEK 293T cells were transfected with each construct individually and 48 hrs post-transfection cells were harvested and stained with Streptavidin conjugated to the fluorophore Allophycocyanin (APC) (FIG. 1B).
The optimal format to express these tags on the cell surface for streptavidin binding was then investigated. Additional plasmids were constructed where these tags are expressed on a GPI anchor with one copy of the tags' open reading frames and GPI anchor with two copies of the open reading frames separated by a CD8-based linker (the annotated amino acid sequences of these constructs are depicted in FIG. 2). The binding of these tags was compared with that of the original constructs where the epitopes were placed on a CD8 stalk.
To test their binding to Streptavidin, HEK 293T cells were transiently transfected with the constructs and stained 48 hrs post-transfection with Streptavidin-APC (FIG. 3).

K562 cells [2] = assay: Sorting of K562 cells expressing flankedccstreptag, RQR8, GST or H6 tags with their respective beads; format: cell-based; settings: for eGFP positive cells in the flow-through fraction / eGFP positive cells in the sorted fraction: K562, respective beads, 12 days post sorting; for eGFP positive cells, pre-sorted population: retrovirally transduced K562 before sorting
Protocol: K562 cells were retrovirally transduced with the four constructs individually. Subsequently cell populations were sorted with their respective beads as per manufacturer protocol. Protein-A Dynabeads were previously incubated with clinical grade human-rituximab over-night at 4 C and washed 5× with PBS to remove any unbound rituximab before adding it to the cells. Sorted fractions were collected as well as the flow through for all sorting. Fractions were assessed for positive cells based on eGFP expression by flow cytometery with a blank channel to account for auto fluorescence from dead cells.
The efficiencies of the different tags (GST, RQR8 and His-tag) at purifying lentiviral particles from cellular media, was tested using the approach previously described for flankcedccstreptag (see Example 2), i.e. by sorting K562 cells expressing these tags on their surface. K562 cells were retrovirally transduced with flankedccstreptag, GST, RQR8 and H6 epitopes separately (FIG. 8, Pre-sorted column). Transduced cells represented a minority of the total population based on eGFP expression; therefore cells were not mixed with NT-K562 cells. Populations expressing flankedccstreptag at 10.5%, RQR8 at 9.75%, GST at 22.7% and H6 […] were thereafter sorted with Streptavidin Dynabeads, human rituximab previously incubated with protein-A bead, Glutathione magnetic beads and His-tag Dynabeads respectively.
Collected fractions were assessed for positive cells 12 days-post sorting. […] Moreover, K562 cells expressing GST epitope were successfully purified from pre-sorting population with 91% eGFP positive cells present in the sorted fraction. […] Conversely, K562 expressing H6 sorting was less successful as only 26.1% of cells in the sorted fraction were eGFP positive while 71.1% of cells were eGFP negative. Additionally, 59.2% eGFP positive cells were in the flow-through. The GST and RQR8 tags therefore show the best activity with regard to purifying viral particles from cellular supernatant in the same manner as flankcedccstreptag epitope.

NT-293T cells = format: cell-based, human
Streptavidin [3] = molecular target: T1, Streptavidin; settings: biotin mimicking peptide binding streptavidin; read-out: affinity; cited from earlier work
K562 cells [4] = assay: Sorting of K562 cells expressing Flankedccstreptag formats with streptavidin beads; format: cell-based
Protocol: Transduced K562 were close to 100% positive for the transgenes after transduction. Positive cells were mixed with non-transduced (NT) K562 pre-sorting. The mixture was incubated with both streptavidin dynabeads (Life technologies, Cat. No. 65601) and streptavidin-microbeads (Miltenyi, Cat. No. 130-048-101) as per manufacturer protocol. The sorted cellular fraction was collected as well as flow-through fraction for both protocols. Sorting was assessed by streptavidin-APC staining and for eGFP positive cell populations 9 days post sorting by flow cytometry.
To establish that the two versions of Flankedccstreptag are able to purify lentivirus from cellular supernatant, an initial experiment was carried out involving sorting of K562 cells expressing these tags on their surface using streptavidin beads. We reasoned that if the tags could attach to a streptavidin matrix while expressed on cells with sufficient stability to allow sorting of expressing cells, they should be suitable for lentiviral capture too.
K562 cells were retrovirally transduced to express the two tags and transduction efficiencies were determined by eGFP expression using flow cytometry (FIG. 4 Transduced K562 plot). Subsequently, transduced cells were mixed with non-transduced K562 to assess the efficiency of sorting using two streptavidin-beads sourced from Life technologies (Dynabeads) and Miltenyi (Microbeads). […]

T1 sequence (P22629 25-183): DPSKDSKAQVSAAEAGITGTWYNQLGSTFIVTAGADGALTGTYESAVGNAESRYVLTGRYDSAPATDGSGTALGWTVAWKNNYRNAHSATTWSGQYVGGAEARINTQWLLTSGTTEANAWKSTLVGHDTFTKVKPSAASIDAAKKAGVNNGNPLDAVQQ

Flankedccstreptag: biotin mimic tag AECHPQGPPCIEGRK (SEQ ID NO: 2) expressed at the cell surface as tagging protein (Biotin mimicking peptide, flankedccstreptag)
binding to Streptavidin-APC (Streptavidin [1]; tag on CD8 stalk): successfully bound
binding to Streptavidin-APC (Streptavidin [1]; tag on GPI anchor, two open reading frames (x2)): higher binding efficiency than StreptagII and ccstreptag
eGFP positive cells in the flow-through fraction (K562 cells [2]): absence of eGFP positive cells
eGFP positive cells in the sorted fraction (K562 cells [2]): 93.6%
eGFP positive cells, pre-sorted population (K562 cells [2]): 10.5%
transduction efficiency, neat supernatant (NT-293T cells): high transduction efficiencies

RQR8: tag with rituximab-binding and Qbend10 epitopes on CD8 stalk, SEQ ID NO: 21
eGFP positive cells in the flow-through fraction (K562 cells [2]): absence of eGFP positive cells
eGFP positive cells in the sorted fraction (K562 cells [2]): 89.4%
eGFP positive cells, pre-sorted population (K562 cells [2]): 9.75%
transduction efficiency, neat supernatant (NT-293T cells): high transduction efficiencies

biotin mimicking peptide DVEAWLDERVPLVET (SEQ ID NO: 35) (Biotin mimicking peptide, long nanotag)
binding to Streptavidin-APC (Streptavidin [1]; tag on CD8 stalk): did not exhibit any binding
Kd (Streptavidin [3]): 0.0036 µM

biotin mimicking peptide DVEAWLGAR (SEQ ID NO: 36) (Biotin mimicking peptide, short nanotag)
binding to Streptavidin-APC (Streptavidin [1]; tag on CD8 stalk): did not exhibit any binding
Kd (Streptavidin [3]): 0.017 µM

biotin mimicking peptide WSHPQFEK (SEQ ID NO: 1) [streptagll]
binding to Streptavidin-APC (Streptavidin [1]; tag on CD8 stalk): successfully bound
Kd (Streptavidin [3]): 72 µM

disulphide constrained biotin mimicking peptide CHPQGPPC (SEQ ID NO: 3) [ccstreptag]
binding to Streptavidin-APC (Streptavidin [1]; tag on CD8 stalk): successfully bound
Kd (Streptavidin [3]): 0.23 µM

flankedccstreptag-d8-x2-GPI: two Flankedccstreptag copies separated by CD8-based linker (SEQ ID NO: 5) on a GPI anchor (ECHPQGPPCIEGRKSSGGGGSPAPRPPTPAPTIASECHPQGPPCIEGRKS; cysteine pairing not given here; also: on a GPI anchor, small tags and cut ends left off)
sorting of tag-expressing K562 cells from mixture with NT K562 (K562 cells [4]; streptavidin microbeads (Miltenyi)): successful
sorting of tag-expressing K562 cells from mixture with NT K562 (K562 cells [4]; streptavidin-dynabeads (Life technologies), eGFP): successfully sorted
